Assay results published in ChEMBL document CHEMBL2203055, “From α4β2 Nicotinic Ligands to the Discovery of σ1 Receptor Ligands: Pharmacophore Analysis and Rational Design” (ACS Med Chem Lett, 2012).

Tests used:
[1] = Displacement of [3H]DTG from sigma 2 receptor in rat PC12 cell membrane after 2 hrs by microbeta scintillation counting analysis; assay type: cell membranes; conditions: pc-12
[2] = target: Sigma non-opioid intracellular receptor 1 (Rattus norvegicus) (UniProt Q9R0C9); assay: Displacement of [3H]pentazocine from sigma 1 receptor in rat brain membrane at 10 uM after 2.5 hrs by microbeta scintillation counting analysis; assay type: cell membranes
[3] = tested on: PC-12; assay: Displacement of [3H]DTG from sigma 2 receptor in rat PC12 cell membrane at 10 uM after 2 hrs by microbeta scintillation counting analysis; assay type: cell membranes
[4] = target: Sigma non-opioid intracellular receptor 1 (Homo sapiens, UniProt Q99720); assay: Binding affinity to sigma 1 receptor
[5] = target: Neuronal acetylcholine receptor; alpha4/beta4 (Rattus norvegicus, UniProt P09483+P12392); assay: Displacement of [3H]epibatidine from alpha4beta4 nAChR after 4 hrs by liquid scintillation counting analysis; assay type: protein-complex assay
[6] = target: T1, Neuronal acetylcholine receptor; alpha4/beta2 (Rattus norvegicus, UniProt P09483+P12390); assay: Displacement of [3H]epibatidine from alpha4beta2* nAChR in rat forebrain after 4 hrs by liquid scintillation counting analysis
[7] = target: T1, Neuronal acetylcholine receptor; alpha4/beta2; assay: Displacement of [3H]epibatidine from alpha4beta2 nAChR after 4 hrs by liquid scintillation counting analysis; assay type: protein-complex assay
[8] = target: Neuronal acetylcholine receptor; alpha3/beta4 (Rattus norvegicus, UniProt P04757+P12392); assay: Displacement of [3H]epibatidine from alpha3beta4 nAChR after 4 hrs by liquid scintillation counting analysis; assay type: protein-complex assay
[9] = target: Neuronal acetylcholine receptor; alpha3/beta2 (Rattus norvegicus, UniProt P04757+P12390); assay: Displacement of [3H]epibatidine from alpha3beta2 nAChR after 4 hrs by liquid scintillation counting analysis; assay type: protein-complex assay
[10] = target: Neuronal acetylcholine receptor; alpha2/beta4 (Rattus norvegicus, UniProt P12389+P12392); assay: Displacement of [3H]epibatidine from alpha2beta4 nAChR after 4 hrs by liquid scintillation counting analysis; assay type: protein-complex assay
[11] = target: Sigma non-opioid intracellular receptor 1 (Rattus norvegicus, UniProt Q9R0C9); assay: Displacement of [3H]pentazocine from sigma 1 receptor in rat brain membrane after 2.5 hrs by microbeta scintillation counting analysis; assay type: cell membranes
Sequence of Sigma non-opioid intracellular receptor 1 (Rattus norvegicus, UniProt Q9R0C9) (Q9R0C9 whole entry): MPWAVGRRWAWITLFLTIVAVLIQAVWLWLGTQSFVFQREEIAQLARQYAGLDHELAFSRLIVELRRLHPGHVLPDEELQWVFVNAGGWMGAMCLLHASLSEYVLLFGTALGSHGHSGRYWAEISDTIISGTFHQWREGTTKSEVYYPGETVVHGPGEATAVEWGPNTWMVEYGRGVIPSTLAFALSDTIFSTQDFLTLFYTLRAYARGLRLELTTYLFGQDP

Sequence of Sigma non-opioid intracellular receptor 1 (Rattus norvegicus) (Q9R0C9 whole entry): as above
T1 sequence (P09483 whole entry): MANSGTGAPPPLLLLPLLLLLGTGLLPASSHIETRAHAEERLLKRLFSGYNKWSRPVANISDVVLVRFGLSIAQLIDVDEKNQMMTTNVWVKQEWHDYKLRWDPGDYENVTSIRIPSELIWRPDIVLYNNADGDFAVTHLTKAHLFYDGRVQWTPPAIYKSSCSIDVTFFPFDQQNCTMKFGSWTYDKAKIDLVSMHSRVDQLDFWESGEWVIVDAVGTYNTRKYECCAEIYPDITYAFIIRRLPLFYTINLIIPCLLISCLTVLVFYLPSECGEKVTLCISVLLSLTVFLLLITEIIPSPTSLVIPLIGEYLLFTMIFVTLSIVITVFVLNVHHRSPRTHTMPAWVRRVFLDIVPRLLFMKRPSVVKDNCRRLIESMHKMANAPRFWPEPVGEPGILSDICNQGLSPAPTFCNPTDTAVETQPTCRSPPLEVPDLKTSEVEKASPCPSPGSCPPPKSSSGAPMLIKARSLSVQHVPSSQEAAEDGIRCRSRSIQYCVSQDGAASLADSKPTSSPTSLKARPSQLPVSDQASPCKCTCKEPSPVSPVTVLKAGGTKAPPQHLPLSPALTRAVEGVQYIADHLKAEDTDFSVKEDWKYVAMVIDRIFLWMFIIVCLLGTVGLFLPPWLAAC
T1 sequence (P12390 whole entry): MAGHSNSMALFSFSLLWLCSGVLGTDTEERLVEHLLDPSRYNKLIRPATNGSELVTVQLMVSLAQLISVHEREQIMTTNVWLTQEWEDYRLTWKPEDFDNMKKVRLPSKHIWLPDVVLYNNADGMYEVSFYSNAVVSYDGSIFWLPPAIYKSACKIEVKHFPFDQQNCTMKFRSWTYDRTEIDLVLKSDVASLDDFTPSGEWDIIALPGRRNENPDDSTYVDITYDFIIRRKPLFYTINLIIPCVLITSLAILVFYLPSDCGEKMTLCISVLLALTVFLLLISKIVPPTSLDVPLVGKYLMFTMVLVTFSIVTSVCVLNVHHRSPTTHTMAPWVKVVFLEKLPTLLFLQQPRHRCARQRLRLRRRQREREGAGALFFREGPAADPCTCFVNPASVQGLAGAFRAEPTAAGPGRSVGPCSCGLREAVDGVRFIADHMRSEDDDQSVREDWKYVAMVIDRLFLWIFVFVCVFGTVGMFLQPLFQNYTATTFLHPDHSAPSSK
Sequence of Sigma non-opioid intracellular receptor 1 (Homo sapiens, UniProt Q99720) (Q99720 whole entry): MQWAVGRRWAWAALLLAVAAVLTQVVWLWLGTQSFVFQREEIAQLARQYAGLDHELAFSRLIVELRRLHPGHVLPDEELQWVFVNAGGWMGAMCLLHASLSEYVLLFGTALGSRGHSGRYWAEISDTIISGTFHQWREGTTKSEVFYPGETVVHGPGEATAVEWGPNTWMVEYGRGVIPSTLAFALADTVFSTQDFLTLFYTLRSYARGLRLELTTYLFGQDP
Sequence of Neuronal acetylcholine receptor; alpha4/beta4 (P09483 whole entry): as the sequence (P09483 whole entry) above
Sequence of Neuronal acetylcholine receptor; alpha4/beta4 (P12392 whole entry): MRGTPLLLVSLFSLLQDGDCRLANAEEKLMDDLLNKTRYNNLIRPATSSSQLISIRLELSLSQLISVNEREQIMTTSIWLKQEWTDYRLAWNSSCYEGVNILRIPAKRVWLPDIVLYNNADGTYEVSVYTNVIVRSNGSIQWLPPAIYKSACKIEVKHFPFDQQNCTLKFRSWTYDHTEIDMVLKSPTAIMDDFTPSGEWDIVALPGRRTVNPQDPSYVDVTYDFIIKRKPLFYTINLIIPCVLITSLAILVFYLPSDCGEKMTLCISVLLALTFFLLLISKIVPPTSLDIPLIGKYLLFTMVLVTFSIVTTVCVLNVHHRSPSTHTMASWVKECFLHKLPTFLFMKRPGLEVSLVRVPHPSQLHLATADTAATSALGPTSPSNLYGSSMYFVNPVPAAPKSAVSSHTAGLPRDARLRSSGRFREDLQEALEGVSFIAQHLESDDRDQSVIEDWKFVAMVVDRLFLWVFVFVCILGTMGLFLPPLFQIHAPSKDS
Sequence of Neuronal acetylcholine receptor; alpha2/beta4 (P12389 whole entry): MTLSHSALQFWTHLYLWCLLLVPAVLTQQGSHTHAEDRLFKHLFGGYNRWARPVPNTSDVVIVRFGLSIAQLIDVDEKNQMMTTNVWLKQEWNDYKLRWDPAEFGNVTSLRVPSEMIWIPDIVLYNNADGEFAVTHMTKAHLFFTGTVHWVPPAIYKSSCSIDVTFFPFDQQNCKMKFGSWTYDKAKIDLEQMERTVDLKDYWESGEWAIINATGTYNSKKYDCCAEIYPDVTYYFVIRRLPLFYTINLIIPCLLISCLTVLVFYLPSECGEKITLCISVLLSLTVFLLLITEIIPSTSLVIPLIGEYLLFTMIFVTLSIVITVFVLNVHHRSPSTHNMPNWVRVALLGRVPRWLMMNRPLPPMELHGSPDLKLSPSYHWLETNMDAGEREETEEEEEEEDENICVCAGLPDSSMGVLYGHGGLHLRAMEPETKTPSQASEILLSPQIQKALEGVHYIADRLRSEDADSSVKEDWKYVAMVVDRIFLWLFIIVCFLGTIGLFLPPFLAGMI
Sequence of Neuronal acetylcholine receptor; alpha2/beta4 (P12392 whole entry): as the sequence (P12392 whole entry) above
Sequence of Neuronal acetylcholine receptor; alpha3/beta2 (P04757 whole entry): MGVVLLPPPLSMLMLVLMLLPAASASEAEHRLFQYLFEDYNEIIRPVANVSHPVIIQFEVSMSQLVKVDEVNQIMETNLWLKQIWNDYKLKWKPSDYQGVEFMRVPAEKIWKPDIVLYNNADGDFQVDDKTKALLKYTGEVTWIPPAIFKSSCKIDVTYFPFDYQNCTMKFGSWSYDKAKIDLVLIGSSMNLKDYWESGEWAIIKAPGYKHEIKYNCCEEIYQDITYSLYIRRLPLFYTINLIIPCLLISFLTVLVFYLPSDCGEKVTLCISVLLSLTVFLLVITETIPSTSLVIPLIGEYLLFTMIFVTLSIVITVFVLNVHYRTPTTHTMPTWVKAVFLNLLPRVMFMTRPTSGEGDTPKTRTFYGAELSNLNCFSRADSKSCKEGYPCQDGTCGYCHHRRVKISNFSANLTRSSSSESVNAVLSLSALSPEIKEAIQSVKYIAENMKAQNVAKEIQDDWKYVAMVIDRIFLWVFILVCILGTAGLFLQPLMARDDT
Sequence of Neuronal acetylcholine receptor; alpha3/beta2 (P12390 whole entry): as the sequence (P12390 whole entry) above
Sequence of Neuronal acetylcholine receptor; alpha3/beta4 (P04757 whole entry): as the sequence (P04757 whole entry) above
Sequence of Neuronal acetylcholine receptor; alpha3/beta4 (P12392 whole entry): as the sequence (P12392 whole entry) above

## c1c(OC[C@@H]2CCN2)noc1COCC1CC1
[1]
  Ki: 369 nM
[2]
  Activity: < 50%

## COCc1cc(OC[C@@H]2CCN2)no1
[3]
  Activity: < 50%
[2]
  Activity: < 50%

## Cc1cc(OC[C@@H]2CCN2)no1
[3]
  Activity: < 50%
[2]
  Activity: < 50%

## COC(=O)[C@@]1(c2ccccc2)C[C@H]1CN(C)C12CC3CC(CC(C3)C1)C2
[4]
  Ki: 2.1 nM

## Clc1cncc(OCc2cc(OC[C@@H]3CCN3)no2)c1
[5]
  Ki: 5580 nM
[6]
  Ki: > 10000 nM
[7]
  Ki: 2220 nM
[8]
  Ki: 6100 nM
[9]
  Ki: > 10000 nM
[10]
  Ki: 1820 nM
[3]
  Activity: < 50%
[11]
  Ki: 103 nM

## OCc1cc(OC[C@@H]2CCN2)on1
[3]
  Activity: < 50%
[2]
  Activity: < 50%

## c1ccc(OCc2cc(OC[C@@H]3CCN3)on2)cc1
[3]
  Activity: < 50%
[11]
  Ki: 328 nM

## Cc1cc(OC[C@@H]2CCN2)on1
[3]
  Activity: < 50%
[2]
  Activity: < 50%

## c1ccc(OCc2cc(OC[C@@H]3CCCN3)on2)cc1
[3]
  Activity: < 50%
[11]
  Ki: 4.2 nM
